The values that follow come from patent publication US20230024584A1, “ANTI-CANCER COMPOSITIONS AND METHODS” (University of Kentucky Research Foundation, priority 2019, published 2023).

Holding throughout (type): cell-based
The test system of assay [1] is SUM159, LM2, MCF-7, MB-MDA-453, 4T1 and 4T1luc cells. Description: MTT assay, breast cancer cell lines. The note with it: 1.25, 2.5 and 5 μM; 24, 48, 72 h. The procedure: With reference to FIGS. 21A-21F, MTT assays were performed to determine the effect of lomitapide treatment on various breast cancer cell lines. Initially, 2500 SUM159 or LM2 cells, 5000 MCF-7 or MB-MDA-453 cells, 1000 4T1 or 4T1^1uc cells were seeded into 96-well plates. After overnight culture, vehicle (DMSO) or lomitapide (final concentration: 1.25, 2.5 and 5 μM) were added into the corresponding wells. After 24 h, 48 h, and 72 h incubation, the culture media were aspirated off and 50 μl of 0.5 mg/mL of MTT containing medium was added into each well. After 3 h incubation, 200 μl of DMSO were added into each well. The OD value of each well was read under the wavelength of 570 nm. The results are presented as mean±standard deviation (n=6) * p<0.05, compared to vehicle control (negative control) treatment group.
(Tetrazolium assays rely on reduction of a dye to a coloured formazan, in cell work by metabolically active cells.)

For assay [2], the system named is SUM19, MCF-7, MDA-MB-453 and 4T1luc cells. Description: Suspension culture sphere formation assay, breast cancer cells. As to conditions: 1.25, 2.5 or 5 μM, 10 days. The procedure:
With reference to FIGS. 24A and 24B, the effect of lomitapide treatment on cancer stem cell-like property of breast cancer cells was further studied. Initially, 2500 breast cancer SUM19, MCF-7, MDA-MB-453 or 4T1^luc cells were seeded into […] 24-well plates; meanwhile, vehicle control (DMSO) or lomitapide (final concentration: 1.25, 2.5 or 5 μM) were added into corresponding wells. After 10-days continuous culture, the final spheres formed were imaged and counted under an inverted phase-contrast microscope. FIG. 24A includes representative sphere images from each treatment groups. FIG. 24B includes the quantitation of sphere numbers (mean±standard deviation, n=3). * p<0.05, compared to vehicle control (negative control) treatment group.

Another assay has as its system breast cancer cells. The assay is described as follows: Cell cycle analysis, breast cancer cells. The note with it: 5 μM; 24, 48 and 72 h. As for the experimental part: Initially, 0.1˜0.3 million of breast cancer cells were seeded into 6 cm culture dish and cultured overnight; then, the culture media were switched into FBS free medium for serum-starvation for 24 h for cell synchronization. After synchronization, the culture media were changed into FBS-containing medium and vehicle control (DMSO) or lomitapide (final concentration: 5 μM) were added into corresponding dishes. After 24, 48 and 72 h culture, cells were harvested, fixed by ice-cold ethanol, stained by PI for flow cytometry analysis of cell cycle. The results are presented as mean±standard deviation (n=3). * p<0.05, compared to vehicle control (negative control) treatment group.

The test system of assay [3] is PC9GR4 and A549 cells. The assay is described as follows: Apoptosis (7-AAD/APC-annexin V flow cytometry), lung cancer cells. The note with it: 1.25, 2.5 or 5 μM, 48 h. As for the experimental part:
With reference to FIGS. 29A and 29B, studies were also conducted to determine the effect of lomitapide treatment on apoptosis of lung cancer cells. Initially, 0.1-0.3 million PC9GR4 or A549 cells were seeded into 6 cm cell culture dishes and cultured overnight. Vehicle control (DMSO) or lomitapide (final concentration: 1.25, 2.5 or 5 μM) was added then into corresponding dishes. After 48 h incubation, the cells were harvested, stained by 7-AAD/APC-annixin V and analyzed by flow cytometry. The results are presented as mean±standard deviation (n=3). * p<0.05, compared to vehicle control (negative control) treatment group.
Background: Flow cytometry measures light scatter and fluorescence of single cells or particles in a stream.

Assay [4] relates to PC9GR4 and A549 cells. Description: Sphere formation assay, lung cancer cells. As to conditions: 1.25, 2.5 or 5 μM, 10 days. The procedure: With reference to FIGS. 30A and 30B, studies were also conducted to determine the effect of lomitapide treatment on the cancer stem cell-like property of lung cancer cells. Initially, 2500 lung cancer PC9GR4 or A549 cells were seeded into […] 24-well plates; meanwhile, vehicle control (DMSO) or lomitapide (final concentration: 1.25, 2.5 or 5 μM) were added into corresponding wells. After 10-days continuous culture, the final spheres formed were imaged and counted under an inverted phase-contrast microscope. FIG. 30A includes representative sphere images from each treatment groups. FIG. 30B includes the quantitation of sphere numbers (mean±standard deviation, n=3). * p<0.05, compared to vehicle control (negative control) treatment group.

Assay [5] concerns HCT116, HT29, DLD1, PT130 and SW480 cells. Description: MTT assay, colon cancer cell lines. The note with it: 1.25, 2.5 and 5 μM; 24, 48, 72 h. As for the experimental part:
With reference to FIGS. 31A-31F, studies were conducted to determine the effect of lomitapide treatment on colon cancer cell growth as determined by the MTT assay. Initially, 1000 HCT116, HT29, DLD1, PT130, or SW480 cells were seeded into 96-well plates. After overnight culture, vehicle (DMSO) or lomitapide (final concentration: 1.25, 2.5 and 5 μM) were added into the corresponding wells. After 24 h, 48 h and 72 h incubation, the culture media were aspirated off and 50 μL of 0.5 mg/mL of MTT containing medium was added into each well. After 3h incubation, 200 μL of DMSO were added into each well. The OD value of each well was read under the wavelength of 570 nm. The results are presented as mean±standard deviation (n=6) * p<0.05, compared to vehicle control (negative control) treatment group.

In assay [6] the test system is DLD1, PT130 and SW480 cells. The assay is described as follows: Clonogenic assay, colon cancer cell lines. The note with it: 1.25, 2.5 or 5 μM for 72 h, then 10 days culture. The procedure: Initially, 100 DLD1, PT130 or SW480 cells were seeded into 6-cm cell culture dishes. After overnight culture, vehicle control (DMSO) or lomitapide (final concentration: 1.25, 2.5 or 5 μM) were added into the corresponding dishes. After 72 h culture, the DMSO- or lomitapide-containing media were removed and the fresh culture media were added in followed by additional 10 days culture. The culture media were replaced with fresh media every three days. At the end of cell culture, the final clones in dishes were fixed by 4% paraformaldehyde and stained with crystal violet. FIG. 32A includes representative images from each treatment groups. FIGS. 32B-32D include quantitation of clone numbers (mean±standard deviation, n=3). * p<0.05, compared to vehicle control (negative control) treatment group.

Regarding lomitapide, the “breast cancer cell growth (MTT)” value in assay [1] was “significantly reduces breast cancer cell growth”. Moreover, the “cancer stem cell-like property (sphere numbers)” value in assay [2] is “significantly reduces cancer stem cell-like property”; in the assay with PC9GR4 and A549 cells [4], “significantly reduces cancer stem cell-like property”. Moreover, in the assay with breast cancer cells, the cell cycle distribution result was “significant G1 phase cell cycle arrest”. Also, the apoptosis result in the assay with PC9GR4 and A549 cells [3] was “induces apoptosis”. Also, the “colon cancer cell growth (MTT)” value in assay [5] is reported as “significantly reduces colon cancer cell growth”. In addition, the “colon cancer cell growth (clone numbers)” value in assay [6] was “significantly reduces colon cancer cell growth”.
